Molecules are shown by their SMILES. Several values for one entry are separate records, joined by “and”; a condition that tells them apart may be missing. Identical values can stand only once. Entries after “also recorded” stand apart in the source; their conditions may differ. Like-named read-outs stand apart in the source and are kept apart here.

In series [1] the target is KIT (Homo sapiens, UniProt P10721). Briefly: Kinome panel, KIT. It is filed as biochemical. To be noted: tested at 1 μM.
Sequence of KIT (P10721 26-976, species assumed): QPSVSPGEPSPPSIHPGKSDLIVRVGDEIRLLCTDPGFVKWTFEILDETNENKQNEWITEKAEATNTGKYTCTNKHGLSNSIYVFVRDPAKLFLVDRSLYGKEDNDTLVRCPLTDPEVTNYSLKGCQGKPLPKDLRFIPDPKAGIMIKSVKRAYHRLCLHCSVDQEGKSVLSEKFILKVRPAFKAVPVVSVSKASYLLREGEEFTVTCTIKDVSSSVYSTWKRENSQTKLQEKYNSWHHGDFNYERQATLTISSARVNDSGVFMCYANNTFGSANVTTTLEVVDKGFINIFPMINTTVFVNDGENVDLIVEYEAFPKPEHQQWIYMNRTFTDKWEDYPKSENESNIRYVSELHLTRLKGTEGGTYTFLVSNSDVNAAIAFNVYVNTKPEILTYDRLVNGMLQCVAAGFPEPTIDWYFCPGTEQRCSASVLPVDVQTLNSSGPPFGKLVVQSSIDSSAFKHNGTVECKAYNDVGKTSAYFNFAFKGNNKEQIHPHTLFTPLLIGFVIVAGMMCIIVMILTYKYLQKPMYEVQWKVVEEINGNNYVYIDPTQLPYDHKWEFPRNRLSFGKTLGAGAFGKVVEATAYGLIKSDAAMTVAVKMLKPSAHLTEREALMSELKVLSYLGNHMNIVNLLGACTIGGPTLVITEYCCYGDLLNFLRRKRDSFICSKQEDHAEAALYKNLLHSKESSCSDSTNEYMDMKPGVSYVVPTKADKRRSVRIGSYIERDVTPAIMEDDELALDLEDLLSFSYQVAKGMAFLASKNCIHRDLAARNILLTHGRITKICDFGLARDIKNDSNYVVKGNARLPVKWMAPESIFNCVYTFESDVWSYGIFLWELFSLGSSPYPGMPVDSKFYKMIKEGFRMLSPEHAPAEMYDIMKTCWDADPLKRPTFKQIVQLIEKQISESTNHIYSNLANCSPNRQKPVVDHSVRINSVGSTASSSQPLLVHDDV
For series [2], the system named is kinome. Briefly: Kinome-wide selectivity panel. To be noted: tested at 10 nM, in relation to 100 nM and 1 μM panels. It is filed as biochemical.
Series [3] concerns the target T1, GRK5 (Homo sapiens, UniProt P34947). Briefly: radiometric GRK5 inhibition assay (tubulin phosphorylation).
Target sequence in this assay (P34947 whole entry): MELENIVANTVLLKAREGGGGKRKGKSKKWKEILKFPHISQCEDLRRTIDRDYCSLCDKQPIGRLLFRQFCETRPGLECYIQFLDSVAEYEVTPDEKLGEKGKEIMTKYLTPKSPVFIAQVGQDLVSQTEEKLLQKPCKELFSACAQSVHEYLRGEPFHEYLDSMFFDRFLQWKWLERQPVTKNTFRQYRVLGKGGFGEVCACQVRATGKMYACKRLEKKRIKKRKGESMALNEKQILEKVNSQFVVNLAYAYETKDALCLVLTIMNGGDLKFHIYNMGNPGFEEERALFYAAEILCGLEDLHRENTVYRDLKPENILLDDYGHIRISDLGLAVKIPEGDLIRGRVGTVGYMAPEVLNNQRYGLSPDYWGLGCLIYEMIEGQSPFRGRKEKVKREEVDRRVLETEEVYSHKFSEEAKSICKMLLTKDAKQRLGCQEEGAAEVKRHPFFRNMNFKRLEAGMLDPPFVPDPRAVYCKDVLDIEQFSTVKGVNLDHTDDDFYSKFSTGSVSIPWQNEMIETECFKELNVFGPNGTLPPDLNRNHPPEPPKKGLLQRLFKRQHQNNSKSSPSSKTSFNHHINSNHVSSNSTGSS
Series [4] deals with T1, GRK5. Briefly: Kinome panel, GRK5. It is filed as biochemical. To be noted: tested at 1 μM.
Target sequence in this assay (P34947 whole entry, species assumed): as the sequence (P34947 whole entry) above
The target in series [5] is EGFR (Homo sapiens, UniProt P00533). Briefly: Kinome panel, EGFR. It is filed as biochemical. As to conditions: tested at 1 μM.
Sequence of EGFR (P00533 25-1210, species assumed): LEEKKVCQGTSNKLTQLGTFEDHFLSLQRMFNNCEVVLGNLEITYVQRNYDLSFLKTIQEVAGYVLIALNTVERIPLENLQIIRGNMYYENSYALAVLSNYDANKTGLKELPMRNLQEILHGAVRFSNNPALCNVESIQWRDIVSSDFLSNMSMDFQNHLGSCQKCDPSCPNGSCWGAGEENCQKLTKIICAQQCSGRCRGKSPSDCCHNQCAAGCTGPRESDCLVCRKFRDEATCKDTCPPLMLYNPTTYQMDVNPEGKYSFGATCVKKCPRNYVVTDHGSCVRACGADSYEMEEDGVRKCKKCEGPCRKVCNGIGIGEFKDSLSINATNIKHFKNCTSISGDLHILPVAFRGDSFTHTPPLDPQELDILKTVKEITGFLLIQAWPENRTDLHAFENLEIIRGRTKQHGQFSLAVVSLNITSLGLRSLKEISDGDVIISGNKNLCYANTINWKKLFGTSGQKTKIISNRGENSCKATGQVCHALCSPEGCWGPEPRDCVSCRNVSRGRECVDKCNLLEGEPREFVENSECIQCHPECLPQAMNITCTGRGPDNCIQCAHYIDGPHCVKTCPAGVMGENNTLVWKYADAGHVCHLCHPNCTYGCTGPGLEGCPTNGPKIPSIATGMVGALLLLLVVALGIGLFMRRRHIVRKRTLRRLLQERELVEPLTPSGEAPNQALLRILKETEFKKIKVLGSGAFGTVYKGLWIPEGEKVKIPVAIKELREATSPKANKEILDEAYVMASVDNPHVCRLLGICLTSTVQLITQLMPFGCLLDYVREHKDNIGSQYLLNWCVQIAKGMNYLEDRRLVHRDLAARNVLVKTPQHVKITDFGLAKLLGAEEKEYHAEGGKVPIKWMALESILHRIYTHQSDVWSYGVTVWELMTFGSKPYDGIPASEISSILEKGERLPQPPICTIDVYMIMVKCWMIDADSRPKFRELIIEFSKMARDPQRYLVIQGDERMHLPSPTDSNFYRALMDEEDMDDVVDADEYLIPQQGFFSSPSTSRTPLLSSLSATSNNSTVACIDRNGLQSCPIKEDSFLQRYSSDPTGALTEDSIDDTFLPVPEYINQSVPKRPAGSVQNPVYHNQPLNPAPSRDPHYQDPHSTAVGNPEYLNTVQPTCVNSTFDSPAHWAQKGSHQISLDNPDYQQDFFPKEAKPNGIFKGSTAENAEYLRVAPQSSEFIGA
For series [6], the target named is GRK5 (Cys474) (Homo sapiens, UniProt P34947). Briefly: Intact protein MS, covalent labelling of GRK5. To be noted: intact protein MS. It is filed as binding.
Sequence of GRK5 (Cys474) (P34947 whole entry): as the sequence (P34947 whole entry) above
Series [7] has as its target T2, bovine GRK2 (Bos taurus, UniProt P21146).
T2 sequence (P21146 1-689): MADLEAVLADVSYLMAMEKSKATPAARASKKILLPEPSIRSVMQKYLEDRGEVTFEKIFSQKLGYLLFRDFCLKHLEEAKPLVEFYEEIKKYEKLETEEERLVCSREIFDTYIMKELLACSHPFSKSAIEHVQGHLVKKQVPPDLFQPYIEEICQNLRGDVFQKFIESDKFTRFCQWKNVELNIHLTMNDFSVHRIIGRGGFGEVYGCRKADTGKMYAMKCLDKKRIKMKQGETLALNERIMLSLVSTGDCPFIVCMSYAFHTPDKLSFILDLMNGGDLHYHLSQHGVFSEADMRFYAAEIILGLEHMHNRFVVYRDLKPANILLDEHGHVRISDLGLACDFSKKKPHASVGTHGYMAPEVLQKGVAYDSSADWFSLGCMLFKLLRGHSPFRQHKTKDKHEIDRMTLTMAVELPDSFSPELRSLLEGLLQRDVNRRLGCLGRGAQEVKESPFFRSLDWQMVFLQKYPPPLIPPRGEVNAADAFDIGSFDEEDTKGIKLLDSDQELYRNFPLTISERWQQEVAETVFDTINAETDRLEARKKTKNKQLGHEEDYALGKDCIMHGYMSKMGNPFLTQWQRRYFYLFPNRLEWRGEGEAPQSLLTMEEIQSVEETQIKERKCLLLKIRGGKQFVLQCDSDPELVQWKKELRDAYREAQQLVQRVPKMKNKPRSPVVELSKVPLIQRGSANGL
The series is described as follows: radiometric GRK2 inhibition assay (tubulin phosphorylation). As to conditions: read-out: GRK2 IC50.

Series [8] addresses GRK6 (Homo sapiens, UniProt P43250). Briefly: Kinome panel, GRK6. As to conditions: tested at 1 μM. It is filed as biochemical.
Series [9] has as its system PDGFR. The series is described as follows: Kinome panel, PDGFR. It is filed as biochemical. To be noted: tested at 1 μM.
The target in series [10] is PKA (Homo sapiens, UniProt P17612). Briefly: PKA inhibition assay (ADP-Glo). It is filed as biochemical. The procedure:
The PKA inhibition assays were performed with the ADP-Glo system (Promega Corporation) according to the manufactory's instruction. […] After the initial reaction, ADP-Glo reagent was added to the reaction and allowed to incubate for an additional 40 min. Lastly, the kinase detection reagent was added and allowed to incubate for 30 min, and the luminescence was measured with a FlexStation 3 Multi-mode Microplate Reader (Molecular Devices). All data was analyzed in the same way as GRK inhibition assay. Experiments were performed three times in duplicate.
Standard control compounds are run during each assay to assess consistency across time, experimenters, and subtle changes in assay conditions that are sometimes required to keep some of the compounds soluble and disperse (such as through addition of DDM or 3% DMSO). Paroxetine were used as controls for GRK2 and PKA, and CCG215022 for GRK5.

Series [11] concerns FGFR1/2. The series is described as follows: Kinome panel, FGFR1/2. It is filed as biochemical. To be noted: tested at 1 μM.
Series [12] can be described thus: Metabolic stability in human liver microsomes. To be noted: 4-fluoro pendant added to phenyl ring. It is filed as in vitro ADME.
Series [13] is described as follows: Thermodynamic solubility (Analiza Inc.). It is filed as physicochemical. To be noted: Water. The text has this: Experimental data collected by Analiza Inc. Experimental values represent an average of n=1 experiments.

Sequence of GRK6 (P43250 whole entry, species assumed): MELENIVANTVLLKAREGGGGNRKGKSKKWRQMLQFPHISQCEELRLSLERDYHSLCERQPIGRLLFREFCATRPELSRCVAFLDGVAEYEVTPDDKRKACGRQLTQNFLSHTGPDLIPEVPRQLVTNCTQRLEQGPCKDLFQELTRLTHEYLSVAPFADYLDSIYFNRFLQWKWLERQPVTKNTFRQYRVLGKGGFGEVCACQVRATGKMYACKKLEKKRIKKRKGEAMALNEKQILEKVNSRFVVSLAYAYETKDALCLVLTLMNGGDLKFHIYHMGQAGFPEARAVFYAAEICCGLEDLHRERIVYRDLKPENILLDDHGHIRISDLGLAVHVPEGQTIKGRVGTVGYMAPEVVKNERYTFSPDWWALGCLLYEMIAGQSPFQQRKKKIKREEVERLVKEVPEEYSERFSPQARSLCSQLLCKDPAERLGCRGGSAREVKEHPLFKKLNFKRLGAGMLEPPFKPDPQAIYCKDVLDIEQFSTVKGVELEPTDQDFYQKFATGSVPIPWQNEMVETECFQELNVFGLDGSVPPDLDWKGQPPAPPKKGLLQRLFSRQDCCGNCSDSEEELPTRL

By inhibition is commonly meant the percentage by which the read-out fell short of the control. Lower therefore signals a weak effect. Broadly, the IC50 is the concentration at which inhibition is half-maximal. As to `Cc1[nH]c(/C=C2\C(=O)Nc3ccc(C(=O)N[C@H](C)c4ccccc4)cc32)c(C)c1NC(=O)CBr` [Compound 9g, (R,Z)-3-((4-(2-bromoacetamido)-3,5-dimethyl-1H-pyrrol-2-yl)methylene)-2-oxo-N-(1-phenylethyl)indoline-5-carboxamide], the inhibition at 1 µM in series [1] worked out at 84%; in series [4] it was 93%; in series [5], 17%; in series [8], 97%. The kinome-wide selectivity result in series [2] is “far more selective across the kinome”. For the same molecule, in [3], the “selectivity for GRK5 over GRK2” value was determined as 1400 fold. For the same molecule, the GRK2/GRK5 in series [3] (Table 1, ratio of IC50 values) amounted to 1400. In addition, the IC50 in series [3] (read-out: GRK5 IC50) is 0.0086 µM; in [7] (Table 1, μM ± SD), 12 ± 20 µM; in [10] (Table 1, μM ± SD) it was over 250 µM. Besides, the “fraction of GRK5 labelled” value in series [6] (30 min incubation) came out at 50%. Besides, the “covalent labelling of GRK5” value in [6] (incubation time not stated) is on record as “able to label GRK5 at Cys474; also recorded: able to form a covalent interaction”. Further, the “inhibition of PDGFR” value in [9] is on record as 99%. For the same molecule, the “inhibition of FGFR1/2” value in series [11] is 94-98%.
As a reminder, the solubility (thermodynamic) is solubility found after equilibrating the solid with the medium. As for `Cc1[nH]c(/C=C2\C(=O)Nc3ccc(C(=O)N[C@H](C)c4ccc(F)cc4)cc32)c(C)c1NC(=O)CCl` [Compound 9j, (R,Z)-3-((4-(2-chloroacetamido)-3,5-dimethyl-1H-pyrrol-2-yl)methylene)-N-(1-(4-fluorophenyl)ethyl)-2-oxoindoline-5-carboxamide], the “increase of stability in HLMs” value in series [12] is 1.4 fold. The “covalent labelling of GRK5” value in series [6] (30 min incubation) is recorded as “form a covalent interaction with Cys474; also recorded: fully labels GRK5”; in series [6] (incubation time not stated) it was “able to form a covalent interaction”. Further, the half-maximal inhibitory concentration (IC50) in series [7] (Table 2, μM ± SD) is 4.8 ± 3 µM; in series [10] (Table 2, μM ± SD), over 250 µM. Further, the “pH After Assay” value in series [13] (solubility assay) turned out to be 3. In addition, in series [13] (thermodynamic from solid, n=1), the thermodynamic solubility was 90.7 µM and 44.8 µg/mL.

Source of the values: patent US20230212120A1, “SMALL MOLECULE INHIBITORS OF GRK5 AND GRK5 SUBFAMILY MEMBERS AND USES THEREOF” (The Regents of the University of Michigan, priority 2020, published 2023).
